Results taken from patent US8476197B2, “Aminopropenoates as fungicides” (priority 2009, dated 2013).
Marks after values point to notes of the source that are not given here.

Details: pH 2.3

SMILES	Log P
CCOC(=O)C(C#N)=C(NC(C)C(C)C)c1cccnc1 (centres unmarked) [Compound 1504]	2.61
CCOC(=O)C(C#N)=C(NC(C)C(C)C)c1cccnc1-c1cccs1 (centres unmarked) [Compound 1505]	3.7^[c]; 3.7^[b]
CCOC(=O)C(C#N)=C(NC(C)C(C)C)c1cccnc1-c1ccsc1 (centres unmarked) [Compound 1519]	3.55
CCOC(=O)C(C#N)=C(NC(C)C(C)C)c1cccnc1-c1ccc(F)cc1 (centres unmarked) [Compound 1541]	3.7
CCOC(=O)C(C#N)=C(NC(C)C(C)C)c1cccnc1Br (centres unmarked) [Compound 1545]	3.27
CCOC(=O)C(C#N)=C(NC(C)C(C)C)c1cccnc1-c1cccc(Cl)c1 (centres unmarked) [Compound 1568]	4.07
CCOC(=O)C(C#N)=C(NC(C)C1CC1)c1cccnc1OCc1ccccc1 (centres unmarked) [Compound 1570]	3.08^[c]; 3.08^[b]

Same assay, conditions: pH 2.7

SMILES	Log P
CCOC(=O)C(C#N)=C(NC(C)C(=O)NC)c1scnc1Cl (centres unmarked) [Compound 1476]	1.81^[a]
CCOC(=O)C(C#N)=C(NC(C)c1c(Cl)cccc1Cl)c1scnc1Cl (centres unmarked) [Compound 1477]	4^[a]
CCOC(=O)C(C#N)=C(NCc1ccc(C)c(C)n1)c1scnc1Cl [Compound 1478]	1.94^[a]
CC(NC(=C(C#N)C(=O)O)c1cccnc1Cl)c1nccs1 (centres unmarked) [Compound 1479]	1.01^[a]
CCOC(=O)C(C#N)=C(NC(C)C1CC1)c1cnn(C)c1Cl (centres unmarked) [Compound 1482]	2.98^[a]
CCOC(=O)C(C#N)=C(NC(C)C(C)C)c1cnn(C)c1Cl (centres unmarked) [Compound 1485]	3.25^[a]
CCOC(=O)C(C#N)=C(NC(C)COC)c1cnn(C)c1Cl (centres unmarked) [Compound 1486]	2.42^[a]
CCOC(=O)C(C#N)=C(NC1CCC1)c1cnn(C)c1Cl [Compound 1487]	2.82^[a]
CCOC(=O)C(C#N)=C(NC(C)C(=O)NC)c1cnn(C)c1Cl (centres unmarked) [Compound 1488]	1.63^[a]
CCSC(=O)C(C#N)=C(NC(C)c1nccs1)c1cccnc1Cl (centres unmarked) [Compound 1489]	2.9^[a]
C=CCOC(=O)C(C#N)=C(NC(C)c1nccs1)c1cccnc1Cl (centres unmarked) [Compound 1490]	2.62^[a]
CC(C)C(C)NC(=C(C#N)C(=O)N1CCCC1)c1cccnc1Cl (centres unmarked) [Compound 1491]	3.02^[a]
COCCNC(=O)C(C#N)=C(NC(C)C(C)C)c1cccnc1Cl (centres unmarked) [Compound 1492]	2.73^[a]
CC(C)C(C)NC(=C(C#N)C(=O)NC1CCCC1)c1cccnc1Cl (centres unmarked) [Compound 1493]	3.9^[a]
CC(C)CNC(=O)C(C#N)=C(NC(C)C(C)C)c1cccnc1Cl (centres unmarked) [Compound 1494]	3.74^[a]
CCOC(=O)C(C#N)=C(NC(C)C(C)C)c1ccnc2ccccc12 (centres unmarked) [Compound 1496]	3.29^[a]
CCOC(=O)C(C#N)=C(NC1CCC1)c1ccnc2ccccc12 [Compound 1498]	2.88^[a]
CCOC(=O)C(C#N)=C(NC(C)COC)c1ccnc2ccccc12 (centres unmarked) [Compound 1499]	2.5^[a]
CCOC(=O)C(C#N)=C(NC(C)c1nccs1)c1cnn(C)c1Cl (centres unmarked) [Compound 1501]	2.42^[a]
CCOC(=O)C(C#N)=C(NC(C)c1nccs1)c1ccnc2ccccc12 (centres unmarked) [Compound 1502]	2.5^[a]
CCOC(=O)C(C#N)=C(NC(C)C(=O)NC)c1ccnc2ccccc12 (centres unmarked) [Compound 1503]	1.8^[a]
CC(C)C(C)NC(=C(C#N)C(=O)N1CCSCC1)c1cccnc1Cl (centres unmarked) [Compound 1507]	3.27^[a]
CC(C)C(C)NC(=C(C#N)C(=O)N1CCCCC1)c1cccnc1Cl (centres unmarked) [Compound 1508]	3.48^[a]

SMILES	Log P
CC(C)C(C)NC(=C(C#N)C(=O)N1CCSC1)c1cccnc1Cl (centres unmarked) [Compound 1509]	3.19^[a]
CSCCNC(=O)C(C#N)=C(NC(C)C(C)C)c1cccnc1Cl (centres unmarked) [Compound 1510]	3.29^[a]
CC(C)C(C)NC(=C(C#N)C(=O)NC1CCC1C)c1cccnc1Cl (centres unmarked) [Compound 1511]	4.01^[a]
CC1CC(NC(=O)C(C#N)=C(NC(C)C(C)C)c2cccnc2Cl)C1 (centres unmarked) [Compound 1512]	4.01^[a]
CC(C)C(C)NC(=C(C#N)C(=O)N(C)C1CC1)c1cccnc1Cl (centres unmarked) [Compound 1513]	3.02^[a]
CCN(OC)C(=O)C(C#N)=C(NC(C)C(C)C)c1cccnc1Cl (centres unmarked) [Compound 1514]	3.15^[a]
CC(C)C(C)NC(=C(C#N)C(=O)Nc1ccncc1)c1cccnc1Cl (centres unmarked) [Compound 1515]	1.58^[a]
CC(C)C(C)NC(=C(C#N)C(=O)Nc1ccccn1)c1cccnc1Cl (centres unmarked) [Compound 1516]	3.21^[a]
CC(C)C(C)NC(=C(C#N)C(=O)NCc1ccccn1)c1cccnc1Cl (centres unmarked) [Compound 1517]	1.94^[a]
CC(C)C(C)NC(=C(C#N)C(=O)N1CCOCC1)c1cccnc1Cl (centres unmarked) [Compound 1518]	2.58^[a]
CCOC(=O)C(C#N)=C(NC(C)c1ncc(C)s1)c1cccnc1Cl (centres unmarked) [Compound 1520]	2.92^[a]
C#CC(NC(=C(C#N)C(=O)OCC)c1cccnc1Cl)C(C)C (centres unmarked) [Compound 1521]	3.37^[a]
CCOC(=O)C(C#N)=C(NC(C)[Si](C)(C)C)c1cccnc1Cl (centres unmarked) [Compound 1522]	3.87^[a]
CCOC(=O)C(C#N)=C(NC(C)c1c(Cl)cccc1Cl)c1cccnc1Cl (centres unmarked) [Compound 1523]	3.73^[a]
CCOC(=O)C(C#N)=C(NC(C)c1csc(C)n1)c1cccnc1Cl (centres unmarked) [Compound 1524]	2.84^[a]
CCOC(=O)C(C#N)=C(NC(C)C(C)CC)c1cccnc1Cl (centres unmarked) [Compound 1525]	3.76^[a]
CCOC(=O)C(C#N)=C(NCc1ccc(C)c(C)n1)c1cccnc1Cl [Compound 1526]	1.91^[a]
CCOC(=O)C(C#N)=C(NC(C)C(C)OC)c1cccnc1Cl (centres unmarked) [Compound 1527]	2.8^[a]
CCOC(=O)C(C#N)=C(NC(C)c1cncnc1C(F)(F)F)c1cccnc1Cl (centres unmarked) [Compound 1528]	2.63^[a]
CCOC(=O)C(C#N)=C(NC(C)c1cn2ccsc2n1)c1cccnc1Cl (centres unmarked) [Compound 1529]	2.35^[a]
CCOC(=O)C(C#N)=C(NC(C)c1ccccc1Br)c1cccnc1Cl (centres unmarked) [Compound 1530]	3.89^[a]
CCOC(=O)C(C#N)=C(NC(C)C1CCCO1)c1cccnc1Cl (centres unmarked) [Compound 1531]	2.71^[a]
CCOC(=O)C(C#N)=C(NC(C)c1ccccc1F)c1cccnc1Cl (centres unmarked) [Compound 1532]	3.48^[a]

SMILES	Log P
CCOC(=O)C(C#N)=C(NC(C)C1(C)CC1)c1cccnc1Cl (centres unmarked) [Compound 1533]	3.46^[a]
CCOC(=O)C(C#N)=C(NC(C)c1c(C)cccc1C)c1cccnc1Cl (centres unmarked) [Compound 1534]	3.96^[a]
CCOC(=O)C(C#N)=C(NC(C)c1c(F)cccc1F)c1cccnc1Cl (centres unmarked) [Compound 1535]	3.27^[a]
CCOC(=O)C(C#N)=C(NC(C)c1nc(C)cs1)c1cccnc1Cl (centres unmarked) [Compound 1536]	2.88^[a]
CCOC(=O)C(C#N)=C(Nc1cccc2cn(C)nc12)c1cccnc1Cl [Compound 1537]	2.68^[a]
CCOC(=O)C(C#N)=C(NC(C)C(=O)OCc1ccccc1)c1cccnc1Cl (centres unmarked) [Compound 1539]	3.53^[a]
CCOC(=O)C(C#N)=C(NCc1ccc(C)c(C)n1)c1cnn(C)c1Cl [Compound 1542]	1.66^[a]
CCOC(=O)C(C#N)=C(NC1(c2ccccc2)CCC1)c1cccnc1Cl [Compound 1550]	3.73^[a]
CCOC(=O)C(C#N)=C(NC1(C(=O)OCC)CCC1)c1cccnc1Cl [Compound 1551]	3.17^[a]
CCOC(=O)C(C#N)=C(Nc1cccc2scnc12)c1cccnc1Cl [Compound 1553]	2.61^[a]
CCOC(=O)C(C#N)=C(NCc1ncccc1C(F)(F)F)c1cccnc1Cl [Compound 1554]	3^[a]
CCOC(=O)C(C#N)=C(Nc1cccc2oc(C)nc12)c1cccnc1Cl [Compound 1555]	3^[a]
CCOC(=O)C(C#N)=C(Nc1cccc2nsnc12)c1cccnc1Cl [Compound 1556]	3.17^[a]
CCOC(=O)C(C#N)=C(NC(C)c1c(Cl)cccc1Cl)c1cnn(C)c1Cl (centres unmarked) [Compound 1559]	3.78^[a]
CCOC(=O)C(C#N)=C(NC(C)C(C)C)c1cn(C)nc1C(Cl)Cl (centres unmarked) [Compound 1562]	3.46^[a]
CCOC(=O)C(C#N)=C(NC(C)c1nccs1)c1cn(C)nc1C(Cl)Cl (centres unmarked) [Compound 1564]	2.75^[a]
CCOC(=O)C(C#N)=C(NC1CCC1)c1cn(C)nc1C(Cl)Cl [Compound 1566]	3.09^[a]
CCOC(=O)C(C#N)=C(NC(C)COC)c1cn(C)nc1C(Cl)Cl (centres unmarked) [Compound 1567]	2.76^[a]
CC(NC(=C(C#N)C(=O)O)c1cccnc1Cl)c1ccccn1 (centres unmarked) [Compound 1571]	1.37^[a]
C=CCOC(=O)C(C#N)=C(NC(C)c1ccccn1)c1cccnc1Cl (centres unmarked) [Compound 1572]	2.66^[a]
CCOC(=O)C(C#N)=C(NC(C)C(=O)NC)c1cn(C)nc1C(Cl)Cl (centres unmarked) [Compound 1573]	3.9^[a]
CCOC(=O)C(C#N)=C(NC(C)c1c(Cl)cccc1Cl)c1cn(C)nc1C(Cl)Cl (centres unmarked) [Compound 1574]	3.94^[a]

Same assay, conditions: pH 7.5

SMILES	Log P
CCOC(=O)C(C#N)=C(NC(C)C(C)C)c1cccnc1 (centres unmarked) [Compound 1504]	2.67
CCOC(=O)C(C#N)=C(NC(C)C(C)C)c1cccnc1-c1cccs1 (centres unmarked) [Compound 1505]	3.7^[c]; 3.7^[b]
CCOC(=O)C(C#N)=C(NC(C)C(C)C)c1cccnc1-c1ccsc1 (centres unmarked) [Compound 1519]	3.57
CCOC(=O)C(C#N)=C(NC(C)C(C)C)c1cccnc1-c1cccc(Cl)c1 (centres unmarked) [Compound 1568]	4.09
CCOC(=O)C(C#N)=C(NC(C)C1CC1)c1cccnc1OCc1ccccc1 (centres unmarked) [Compound 1570]	3.08^[c]; 3.08^[b]
